Test system: ADP-induced platelet aggregation (rabbit PRP)
Test: Inhibitory effect on ADP-induced platelet aggregation in PRP
Format: cell-based
Details: ADP (2 μM), preincubated 37° C. for 1 minute, inhibition rate (%) at this concentration in parentheses
Procedure: Rabbit PRP (250 μl) was preincubated with drug samples (10 μl of aqueous solution or 1 μl of DMSO solution) at 37° C. for 1 minute, and ADP (2 μM)-induced platelet aggregation was measured by aggregometer (NKK HEMA TRACERl Model PAT-4M). Inhibitory effects of the drugs were estimated from the standard curve of maximal aggregation.

With `O=S(=O)(NCCCN1CCN(C(c2ccccc2)c2ccccc2)CC1)c1ccc(Cl)cc1` [Example 9] as the compound, how does the “Platelet aggregation inhibitory concentration” value read?
The value was 10^-4 mole/liter.

Reference: US4948892A, “Sulfonamid compound useful for treating cardiovascular disorders” (Kowa Comp., Ltd., priority 1988, dated 1990)
